This is an account of results in US4017485A, “7-Methoxycephalosporin derivatives” (Takeda Chemical Industries, Ltd., priority 1973, dated 1977).

The test system of series [1] is Bacillus subtilis PCI 219. Briefly: Antimicrobial spectrum, minimal inhibitory concentration. It counts as cell-based. The note with it: PCI219, Tripticase Soy Agar (BBL), pH 6.5, 37° C, read-out: minimal inhibitory concentrations. On the procedure:
(§1) Based on the above physical and chemical properties as well as the results of other analyses, the chemical structure of this new antibiotic C-2801-X was determined as follows. [drawing 2] 11. Antimicrobial spectrum: Medium: Tripticase Soy Agar (BBL) (manufactured by Becton Dickenson Co., U.S.A.), pH 6.5, minimal inhibitory concentrations mcg/ml., temperature 37° C

The subject of series [2] is Escherichia coli (clinical isolate, antibiotic-susceptible strain). The description is as above. In kind it is cell-based. Conditions: Tripticase Soy Agar (BBL), pH 6.5, 37° C, read-out: minimal inhibitory concentrations. On the procedure:
as §1

The test system of the next series is Escherichia coli NIHJ. The series is described as above. Conditions: Tripticase Soy Agar (BBL), pH 6.5, 37° C, read-out: minimal inhibitory concentrations. In kind it is cell-based. The method, then:
as §1

Series [3] has as its system Pseudomonas aeruginosa NCTC-10490. The description is as above. In kind it is cell-based. Conditions: NCTC10490, Tripticase Soy Agar (BBL), pH 6.5, 37° C, read-out: minimal inhibitory concentrations. On the procedure: as §1
Series [4] has as its system Staphylococcus aureus 209 P (chloramphenicol, streptomycin, tetracycline and erythromycin-resistant). Described as above. The note with it: pH 6.5, read-out: minimal inhibitory concentrations. It counts as cell-based. On the procedure:
as §1

Series [5] has as its system Staphylococcus aureus 209 P. The series is described as above. Conditions: Tripticase Soy Agar (BBL), pH 6.5, 37° C, read-out: minimal inhibitory concentrations. In kind it is cell-based. The method, then: as §1
Series [6] deals with Straphylococcus aureus No.87. The series is described as above. It counts as cell-based. The note with it: Tripticase Soy Agar (BBL), pH 6.5, 37° C, read-out: minimal inhibitory concentrations. The method, then:
as §1

For series [7], the system named is Aerobacter cloacae IFO-12009. The series is described as above. In kind it is cell-based. Conditions: Enterobacter cloacae, IFO12009, Tripticase Soy Agar (BBL), pH 6.5, 37° C, read-out: minimal inhibitory concentrations. On the procedure: as §1
(§2) (The IFO-numbers given above are the accession numbers at the Institute
(§3) for Fermentation, Osaka, Japan).

Series [8] concerns Alcaligenes faecalis IFO-13111. The description is as above. It counts as cell-based. The note with it: IFO13111, Tripticase Soy Agar (BBL), pH 6.5, 37° C, read-out: minimal inhibitory concentrations. On the procedure:
as §1, §2, §3

Series [9] relates to Bacillus pumilus IFO-3813. The series is described as above. It counts as cell-based. The note with it: IFO3813, Tripticase Soy Agar (BBL), pH 6.5, 37° C, read-out: minimal inhibitory concentrations. On the procedure:
as §1, §2, §3

The subject of series [10] is Klebsiella pneumoniae IFO-3512. The description is as above. It counts as cell-based. The note with it: IFO3512, Tripticase Soy Agar (BBL), pH 6.5, 37° C, read-out: minimal inhibitory concentrations. On the procedure:
as §1, §2, §3

For series [11], the system named is Proteus mirabilis IFO-3849. The description is as above. The note with it: IFO3849, Tripticase Soy Agar (BBL), pH 6.5, 37° C, read-out: minimal inhibitory concentrations. It counts as cell-based. The method, then:
as §1, §2, §3

For series [12], the system named is Proteus morganii IFO-3848. The description is as above. It counts as cell-based. Conditions: Morganella morganii, IFO3848, Tripticase Soy Agar (BBL), pH 6.5, 37° C, read-out: minimal inhibitory concentrations. The method, then: as §1, §2, §3
Series [13] deals with Proteus vulgaris IFO-3988. Described as above. It counts as cell-based. Conditions: IFO3988, Tripticase Soy Agar (BBL), pH 6.5, 37° C, read-out: minimal inhibitory concentrations. On the procedure: as §1, §2, §3
For series [14], the system named is Pseudomonas aeruginosa IFO-3080. Described as above. It counts as cell-based. Conditions: IFO3080, Tripticase Soy Agar (BBL), pH 6.5, 37° C, read-out: minimal inhibitory concentrations. The method, then: as §1, §2, §3
The subject of series [15] is Salmonella enteritidis IFO-3313. The series is described as above. It counts as cell-based. Conditions: Salmonella enterica, Tripticase Soy Agar (BBL), pH 6.5, 37° C, read-out: minimal inhibitory concentrations. The method, then: as §1, §2, §3
For series [16], the system named is Salmonella typhimurium IFO-12529. The description is as above. In kind it is cell-based. The note with it: Salmonella enterica, Tripticase Soy Agar (BBL), pH 6.5, 37° C, read-out: minimal inhibitory concentrations. The method, then: as §1, §2, §3
Series [17] has as its system Escherichia coli (clinical isolate*). The description is as above. It counts as cell-based. The note with it: clinical isolate resistant to tetracycline, streptomycin, kanamycin, lividomycin, aminobenzylpenicillin and sulbenicillin, Tripticase Soy Agar (BBL), pH 6.5, 37° C, read-out: minimal inhibitory concentrations. On the procedure: as §1
*The strain is resistant to tetracycline, streptomycin, kanamycin,
lividomycin, aminobenzylpenicillin and sulbenicillin.

Series [18] concerns Escherichia coli (clinical isolate**). Described as above. In kind it is cell-based. The note with it: clinical isolate resistant to sulfonamide, streptomycin and sulbenicillin, Tripticase Soy Agar (BBL), pH 6.5, 37° C, read-out: minimal inhibitory concentrations. On the procedure:
as §1
**The strain is resistant to sulfonamide, streptomycin and sulbenicillin.

For the next series, the system named is mice. Briefly: Acute toxicity test in mice. In kind it is in vivo. Conditions: 400 mg. per kilogram of body weight, intravenously. On the procedure: In an acute toxicity test in mice, there occurred no death when 400 mg. of Antibiotic C-2801-X monosodium salt per kilogram of body weight was administered intravenously.
A short description of a further series: Solubility. In kind it is physicochemical.
The next series in a line: acidity-alkalinity. It counts as physicochemical.
The nature of series [19]: Stability under strongly acidic and under alkaline conditions. It counts as physicochemical.
The test system of series [20] is Staphylococcus aureaus, Bacillus subtilis, Escherichia coli, Proteus vulgaris, Salmonella typhimurium, aerobic bacteria. Briefly: Inhibition of bacterial growth (summary statement). It counts as cell-based. Conditions: antibiotic C-2801-X and its salts.

Structures are written as SMILES. Where a name gives a salt, the structure may show the parent alone. Some results are limits rather than exact numbers.

Regarding `COC(=Cc1ccc(O)c(O)c1)C(=O)OCC1=C(C(=O)O)N2C(=O)C(NC(=O)CCCC(N)C(=O)O)(OC)C2SC1` (stereo not shown) [Antibiotic C-2801-X monosodium salt], the MIC in series [1] is 12.5 µg/mL; in series [2], 25 µg/mL; in the series with Escherichia coli NIHJ it was 50 µg/mL; in [3], more than 100 µg/mL; in [4], 50 µg/mL; in [5] it was 50 µg/mL. Besides, the MIC in series [6] is 50 µg/mL; in series [7], 25 µg/mL; in [8] it was 12.5 µg/mL; in series [9] it was 50 µg/mL; in series [10], 6.25 µg/mL; in series [11], 3.13 µg/mL. Moreover, the MIC in series [12] was 25 µg/mL; in series [13], 12.5 µg/mL; in series [14] it was more than 100 µg/mL; in series [15], 6.25 µg/mL; in series [16], 6.25 µg/mL; in series [17], 25 µg/mL. The MIC in series [18] turned out to be 25 µg/mL. For the same compound, the “death in acute toxicity test” value with mice is “no death”. The Solubility result in “Solubility” (in chloroform) is “Insoluble”; in “Solubility” (in ethanol), “Soluble”; in the series “Solubility” (in ether) it was “Insoluble”; in “Solubility” (in ethyl acetate), “Insoluble”; in the series “Solubility” (in methanol) it was “Soluble”; in “Solubility” (in water) it was “Soluble”. Further, the acidity-alkalinity result in the series “acidity-alkalinity” is given as “Amphoteric”.
Turning to `COC(=Cc1ccc(O)c(O)c1)C(=O)OCC1=C(C(=O)O)N2C(=O)C(NC(=O)CCCC(N)C(=O)O)(OC)C2SC1` (stereo not shown) [Antibiotic C-2801-X], in the series “Solubility” (in water), the Solubility result is “water-soluble”. Also, in [19], the stability result is recorded as “unstable”. In addition, the acidity-alkalinity entry in the series “acidity-alkalinity” is “amphoteric”. In series [20], the “inhibition of growth of bacteria” value was “inhibit the growth”.
